The values that follow come from patent US20160305970A1, “CELL LINES AND METHODS FOR MAKING AND USING THEM” (Chromocell Corporation, priority 2008, published 2016).

pEC50: −log10 of the molar value.

The subject of test [1] is GABAA (α1β3γ2s, α2β3γ2s, α3β3γ2s and α5β3γ2s). In words: In-cell readout assay using halide-sensitive meYFP, GABAA-meYFP-CHO cells. The conditions noted are these: increasing concentrations of GABA ligand. Format: cell-based, human. On the procedure:
The response of GABAA (subunit combinations of α1β3γ2s (A1), α2β3γ2s (A2), α3β3γ2s (A3) and α5β3γ2s (A5)) expressing CHO cells of the invention to test compounds was evaluated using the following protocol for an in-cell readout assay.
Cells were plated 24 hours prior to assay at 10-25,000 cells per well in 384 well plates in growth media (Ham's F-12 media plus FBS and glutamine). […] The assay plates were then loaded on the FDSS (Hamamatsu Corporation). […] The plates were read for 90 seconds.

For the next test, the target named is T1, GABAA α5β3γ2s (α5) (Homo sapiens, UniProt P18507+P28472+P31644).
T1 construct: expressed in transfected cells
Format: cell-based. The settings on record: CHO cell line α5β3γ2s, membrane potential assay. On the procedure:
Cells were plated 24 hours prior to assay at 10-25,000 cells per well in 384 well plates in growth media (Ham's F-12 media plus FBS and glutamine). […] Incubation was for 1 hour, followed by plate loading onto the high throughput fluorescent plate reader (Hamamastu FDSS). […] The plates were read for 90 seconds.

A further test deals with human CFTR. Put plainly: Fluorescence membrane potential assay, stable CFTR-expressing CHO cell line. The conditions noted are these: stable CFTR-expressing cell line, 15,000 cells/well, 384-well plate. Type of test: cell-based. Here is the method:
Populations of cells were tested using functional criteria. Membrane potential dye kits (Molecular Devices, MDS) were used according to manufacturer's instructions. Cells were tested at varying densities in 384-well plates (i.e., 12.5×10^3 to 20×10^3 cells/per well) and responses were analyzed. Time between cell plating and assay read was tested. Dye concentration was also tested. Dose response curves and Z' scores were both calculated as part of the assessment of potential functionality. CHO cell lines stably expressing CFTR were maintained under standard cell culture conditions in Ham's F12 medium supplemented with 10% fetal bovine serum and glutamine. On the day before assay, the cells were harvested from stock plates and plated into black clear-bottom 384 well assay plates. The assay plates were maintained in a 37° C. cell culture incubator under 5% CO2 for 22-24 hours. […] For forskolin dose-response experiments, cells of the produced stable CFTR-expressing cell lines, plated at a density of 15,000 cells/well in a 384-well plate were challenged with increasing concentration of forskolin, a known CFTR agonist. The cellular response as a function of changes in cell fluorescence was monitored over time by a fluorescent plate reader (Hamamatsu FDSS). […]-1742 (2001)), indicating the potency of the clone.

In test [2] the target is human GC-C (guanylate cyclase 2C, GUCY2C) (human) (UniProt P25092). Put plainly: cell-based or functional assay.
Sequence of human GC-C (guanylate cyclase 2C, GUCY2C) (human) (P25092 24-1073): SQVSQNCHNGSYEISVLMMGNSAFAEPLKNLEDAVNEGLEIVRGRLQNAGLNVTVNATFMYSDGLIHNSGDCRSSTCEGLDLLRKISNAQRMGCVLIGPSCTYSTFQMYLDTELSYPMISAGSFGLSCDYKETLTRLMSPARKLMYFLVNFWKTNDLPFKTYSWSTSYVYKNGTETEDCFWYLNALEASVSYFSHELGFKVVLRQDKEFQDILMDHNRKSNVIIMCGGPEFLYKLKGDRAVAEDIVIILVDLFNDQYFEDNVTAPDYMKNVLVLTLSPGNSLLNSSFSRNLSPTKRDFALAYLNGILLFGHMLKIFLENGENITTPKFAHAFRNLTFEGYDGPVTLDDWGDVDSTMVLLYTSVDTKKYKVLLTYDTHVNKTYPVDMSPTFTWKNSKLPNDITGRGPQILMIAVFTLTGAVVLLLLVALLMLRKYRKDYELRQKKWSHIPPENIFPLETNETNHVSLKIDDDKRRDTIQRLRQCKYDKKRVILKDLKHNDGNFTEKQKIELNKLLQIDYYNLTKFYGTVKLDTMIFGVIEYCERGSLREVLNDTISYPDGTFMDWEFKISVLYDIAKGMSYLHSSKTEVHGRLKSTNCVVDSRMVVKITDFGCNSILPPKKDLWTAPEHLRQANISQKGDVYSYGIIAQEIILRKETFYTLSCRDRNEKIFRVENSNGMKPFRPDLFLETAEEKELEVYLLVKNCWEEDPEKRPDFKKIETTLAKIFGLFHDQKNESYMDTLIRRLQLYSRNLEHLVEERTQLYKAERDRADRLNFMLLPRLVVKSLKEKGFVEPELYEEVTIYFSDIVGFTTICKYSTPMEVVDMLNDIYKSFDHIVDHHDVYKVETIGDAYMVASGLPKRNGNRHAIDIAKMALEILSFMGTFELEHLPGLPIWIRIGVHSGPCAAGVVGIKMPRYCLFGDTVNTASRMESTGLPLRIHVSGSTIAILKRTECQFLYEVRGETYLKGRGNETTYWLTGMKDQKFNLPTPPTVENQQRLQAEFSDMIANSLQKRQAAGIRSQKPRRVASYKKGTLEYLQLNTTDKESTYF

T1 sequence (P31644 32-462): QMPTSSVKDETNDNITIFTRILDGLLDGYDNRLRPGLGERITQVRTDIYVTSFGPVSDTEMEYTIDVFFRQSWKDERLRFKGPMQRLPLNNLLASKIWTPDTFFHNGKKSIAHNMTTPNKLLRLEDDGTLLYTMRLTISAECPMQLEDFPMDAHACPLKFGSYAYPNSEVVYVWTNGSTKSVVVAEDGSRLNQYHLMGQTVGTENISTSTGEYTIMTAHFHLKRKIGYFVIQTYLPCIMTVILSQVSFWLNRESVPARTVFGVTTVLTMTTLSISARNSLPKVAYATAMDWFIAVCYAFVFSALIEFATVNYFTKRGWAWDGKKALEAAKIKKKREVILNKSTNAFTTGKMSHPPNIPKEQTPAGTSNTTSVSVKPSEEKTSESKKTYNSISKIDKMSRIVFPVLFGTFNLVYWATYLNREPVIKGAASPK
T1 sequence (P28472 26-473): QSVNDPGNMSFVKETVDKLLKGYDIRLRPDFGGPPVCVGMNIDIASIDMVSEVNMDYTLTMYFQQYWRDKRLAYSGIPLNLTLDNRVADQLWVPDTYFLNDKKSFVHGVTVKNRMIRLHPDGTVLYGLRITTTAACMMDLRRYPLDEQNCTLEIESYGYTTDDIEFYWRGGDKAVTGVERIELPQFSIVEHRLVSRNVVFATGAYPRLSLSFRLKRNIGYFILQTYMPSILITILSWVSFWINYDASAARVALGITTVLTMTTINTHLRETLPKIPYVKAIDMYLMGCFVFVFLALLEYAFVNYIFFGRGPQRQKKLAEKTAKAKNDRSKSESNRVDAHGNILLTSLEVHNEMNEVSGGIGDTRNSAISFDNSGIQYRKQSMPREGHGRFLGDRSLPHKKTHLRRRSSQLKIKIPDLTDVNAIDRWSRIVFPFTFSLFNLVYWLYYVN
T1 sequence (P18507 40-467 isoform P18507-1 limits assumed): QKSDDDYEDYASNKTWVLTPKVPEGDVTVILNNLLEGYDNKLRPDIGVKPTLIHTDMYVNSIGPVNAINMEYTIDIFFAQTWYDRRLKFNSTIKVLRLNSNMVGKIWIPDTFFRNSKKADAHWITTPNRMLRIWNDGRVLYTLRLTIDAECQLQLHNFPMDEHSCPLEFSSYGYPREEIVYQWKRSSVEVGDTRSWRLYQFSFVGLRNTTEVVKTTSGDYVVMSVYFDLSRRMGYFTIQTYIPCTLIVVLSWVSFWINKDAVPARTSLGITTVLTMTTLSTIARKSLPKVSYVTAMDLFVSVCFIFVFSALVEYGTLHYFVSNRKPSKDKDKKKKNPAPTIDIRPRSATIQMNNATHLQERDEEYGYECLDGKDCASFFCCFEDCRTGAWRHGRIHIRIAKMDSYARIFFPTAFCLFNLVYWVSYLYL

Turning to `NCCCC(=O)O` [GABA], the meYFP signal response entry in test [1] is “increasing quench of meYFP signal”.

In the case of `COc1cc(/C=C(\C#N)C(=O)c2ccc(O)c(O)c2)cc(I)c1O` [I-OMe Tyrphostin 538], at GABAA α5β3γ2s (α5), the “EC50 Values α5” value is “α5 Not active”.

What is called pEC50 is the EC50 on a negative log10 scale, so that one unit is a factor of ten. In the test with human CFTR, `C=C[C@@]1(C)CC(=O)[C@]2(O)[C@@]3(C)[C@@H](O)CCC(C)(C)[C@@H]3[C@H](O)[C@H](OC(C)=O)[C@@]2(C)O1` [forskolin] had a pEC50 of 6.59.

In test [2], guanylin (peptide) came in with an EC50 of the cellular response (absorbance as a function of changes in cGMP levels, Direct Cyclic GMP Enzyme Immunoassay Kit) to increasing guanylin of 1.1 nM and a level of cGMP of 6 pmol/mL.
